Results as given in paper PMC6629785, “Synthesis and Pharmacological Evaluation of a Novel Peptide Based on Anemonia sulcata BDS-I Toxin as a New KV3.4 Inhibitor Exerting a Neuroprotective Effect Against Amyloid-β Peptide” (Frontiers in Chemistry, 2019).

What follows are substances tested against T1, KV3.4 channels (Homo sapiens, UniProt Q03721) (assay: Whole-cell patch clamp of Kv3.4 currents in CHO cells transiently transfected with Kv3.4/MiRP2). Details: peptide 100 nM, acute application; CHO cells transfected with Kv3.4/MiRP2; whole-cell patch clamp.
T1 construct: expressed in transfected cells; host or cells: CHO cells, transient transfection with Lipofectamine 2000; cDNAs provided by Professor Goldstein, University of Chicago
T1 sequence (Q03721 1-635): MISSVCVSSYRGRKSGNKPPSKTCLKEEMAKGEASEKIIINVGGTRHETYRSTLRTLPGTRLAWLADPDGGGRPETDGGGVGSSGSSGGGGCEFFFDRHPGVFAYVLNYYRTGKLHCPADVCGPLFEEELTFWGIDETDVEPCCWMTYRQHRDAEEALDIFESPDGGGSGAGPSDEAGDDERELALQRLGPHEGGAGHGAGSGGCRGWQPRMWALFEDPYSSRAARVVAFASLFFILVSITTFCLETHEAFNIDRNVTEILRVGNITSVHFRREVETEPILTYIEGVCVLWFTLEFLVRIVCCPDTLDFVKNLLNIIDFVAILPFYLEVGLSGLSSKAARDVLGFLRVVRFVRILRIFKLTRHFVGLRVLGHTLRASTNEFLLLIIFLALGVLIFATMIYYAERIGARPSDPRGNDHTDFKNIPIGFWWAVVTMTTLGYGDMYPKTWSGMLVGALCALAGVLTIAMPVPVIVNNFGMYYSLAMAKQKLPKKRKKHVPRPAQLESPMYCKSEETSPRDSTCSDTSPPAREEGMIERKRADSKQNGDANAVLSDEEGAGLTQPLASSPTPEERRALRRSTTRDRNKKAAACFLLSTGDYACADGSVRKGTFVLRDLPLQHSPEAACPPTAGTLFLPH
T1 sequence (Q9Y6H6 1-103 partner): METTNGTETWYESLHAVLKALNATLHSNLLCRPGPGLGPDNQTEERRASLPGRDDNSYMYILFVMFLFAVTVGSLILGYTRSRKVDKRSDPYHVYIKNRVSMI
Type: cell-based
Protocol: KV3.4 and MiRP2 channel subunits were expressed in Chinese hamster ovary (CHO) cells by transient transfection. CHO cells were grown in 100 mm plastic Petri dishes in Dulbecco's Modified Eagle Medium containing 10% fetal bovine serum (FBS), non-essential amino acids (0.1 mm), penicillin (50 U/ml), and streptomycin (50 μg/ml) in a humidified atmosphere at 37°C with 5% CO2 (Miceli et al., [2015]). KV3.4 and MiRP2 cDNAs were kindly provided by the Professor Goldstein of the Department of Pediatrics and Institute for Molecular Pediatric Sciences, University of Chicago, USA. For electrophysiological experiments, cells were seeded on glass cover-slips (Glaswarenfabrik Karl Hecht KG, Sondheim, Germany) coated with poly-L-lysine (50 μg/mL) and transfected the next day with the appropriate cDNAs using Lipofectamine 2000 according to guidelines for transfection. We performed electrophysiological experiments 48 h after transfection.
Currents from CHO cells were recorded at room temperature 1-2 days after transfection. The extracellular solution contained the following (in mM): 138 NaCl, 5.4 KCl, 2 CaCl2, 1 MgCl2, 10 glucose and 10 HEPES, adjusted pH 7.4 with NaOH. The pipette solution contained (in mM) the following: 140 KCl, 2 MgCl2, 10 EGTA, 10 HEPES, 5 Mg-ATP, adjusted pH 7.4 with KOH (Miceli et al., [2015]). KV3.4 currents were measured by applying voltage steps from −100 mV to +60 mV from a holding potential of −80 mV (Abbott et al., [2001]). Moreover, the total outward K^+ currents were recorded in NGF-differentiated PC-12 cells using the extracellular solution contained the following (in mM): 150 NaCl, 5.4 KCl, 3 CaCl2, 1 MgCl2, 10 HEPES, adjusted pH 7.4 with NaOH. The pipette solution contained the following (in mM): 140 KCl, 2 MgCl2, 10 HEPES, 10 glucose, 10 EGTA, and 1 Mg-ATP adjusted at pH 7.4 with KOH (Diochot et al., [1998]). All experiments were performed in the presence of 50 nM tetrodotoxin (TTX) and 10 μ M nimodipine in the extracellular solution. To discriminate K^+ current components appropriate electrophysiological protocols were used (Pannaccione et al., [2007]). Steady-state activation and inactivation properties were measured by using appropriate protocols (Pannaccione et al., [2005]). Capacitive currents were elicited by 5-mV depolarizing pulses from −80 mV and acquired at a sampling rate of 50 kHz. The capacitance of the membrane was calculated according to the following equation: Cm = τc·Io/ΔEm (1-I∞/Io), where Cm is membrane capacitance, τc is the time constant of the membrane capacitance, Io is the maximum capacitance current value, ΔEm is the amplitude of the voltage step, and I∞ is the amplitude of the steady-state current. K^+ currents were recorded by patch-clamp technique in CHO and NGF-differentiated PC-12 cells using a commercially available amplifier (Axopatch 200B, Molecular Devices) and Digidata 1322A interface (Molecular Devices, USA). The whole-cell configuration of the patch-clamp technique was adopted using glass micropipettes with a resistance of 2.5-5.0 MΩ. Data were acquired and analyzed using the pClamp software (version 9, Molecular Devices).
For the acute treatment, each peptide has been added in the extracellular solution. For each cell, we first recorded K^+ currents as previously described, in the absence of peptides. After that, we switched from the extracellular solution without BDS-I peptides to the extracellular solution containing the BDS-I peptide. In these conditions, we recorded K^+ currents until the steady-state was reached. This protocol has been performed to test the effect on KV3.4 currents of each BDS-I fragment as well as of BDS-I[1-8scr].
To identify the smallest BDS-I amino acid sequence able to block Kv3.4 activity, we evaluated the effect of the newly synthesized BDS-I fragments in CHO cells transiently transfected with Kv3.4/MiRP2, by patch clamp technique in whole cell configuration. […]

Substance | ability to inhibit Kv3.4 currents (in words)
H-GYGYTSNA-OH [BDS-I[25-32], overlapping 8-amino-acid fragment of BDS-I] | did not
H-NIAAYPH-OH [BDS-I[37-43], C-terminal 7-amino-acid fragment of BDS-I] | did not
H-GDLWILRG-OH [BDS-I[13-20], overlapping 8-amino-acid fragment of BDS-I] | did not
H-RGTAPGGY-OH [BDS-I[19-26], overlapping 8-amino-acid fragment of BDS-I] | did not
H-NAYKWPNI-OH [BDS-I[31-38], overlapping 8-amino-acid fragment of BDS-I] | did not
H-SGKPGRGD-OH [BDS-I[7-14], overlapping 8-amino-acid fragment of BDS-I] | did not
